Among the test systems are LOX IMVI melanoma; NCI/ADR-RES ovarian; MALME-3M melanoma; COLO 205 colon; SF-295 CNS; RPMI-8226 leukemia; HCT-15 colon; RXF 393 renal; OVCAR-8 ovarian; IGROV1 ovarian.
Holding throughout (assay): NCI anticancer screen, dose series, 48 h

Values joined by “and” are separate entries in the source; they are usually repeats but may differ in a detail not shown here. Equal values may be shown once.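 Cells were grown in 96-well plates and exposed to each compound for 48 hours at five concentrations; endpoints were interpolated linearly between bracketing concentrations, or set to the highest concentration if not reached. At the GI50, growth is halved. At the TGI there is no net growth.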

With `CC(=O)OCC1OC(S[As](C)C)C(OC(C)=O)C1OC(C)=O` (configuration not stated), the GI50 with LOX IMVI melanoma is 257 nM; in the experiment with NCI/ADR-RES ovarian it was 259 nM; with MALME-3M melanoma, 107 nM; in the experiment with COLO 205 colon it was 176 nM; with SF-295 CNS, 2060 nM; in the experiment with HCT-15 colon, 256 nM. Also, the GI50 in the experiment on RXF 393 renal was 455 nM; with OVCAR-8 ovarian, 272 nM; with IGROV1 ovarian it was 732 nM. Also, the TGI in the experiment with LOX IMVI melanoma was 991 nM; in the experiment on NCI/ADR-RES ovarian, 2.48 µM; with MALME-3M melanoma, 0.696 µM; in the experiment on COLO 205 colon, 2.66 µM; in the experiment on SF-295 CNS, 7.33 µM; with RPMI-8226 leukemia, 0.126 µM. Further, the TGI in the experiment with HCT-15 colon was 1080 nM; in the experiment on RXF 393 renal, 2310 nM; in the experiment with OVCAR-8 ovarian, 1.57 µM; in the experiment on IGROV1 ovarian, 4.06 µM.
As to `COc1ccc(Nc2ccnc(NCCCNc3ccnc4cc(Cl)ccc34)n2)cc1`, the GI50 in the experiment with LOX IMVI melanoma was 322 nM; with NCI/ADR-RES ovarian it was 2780 nM; in the experiment on MALME-3M melanoma it was 1360 nM; in the experiment with COLO 205 colon, 1210 nM; with SF-295 CNS, 1120 nM; in the experiment on RPMI-8226 leukemia it was 891 nM. Besides, the GI50 with HCT-15 colon is 397 nM; with RXF 393 renal, 897 nM; in the experiment on OVCAR-8 ovarian it was 1500 nM; in the experiment on IGROV1 ovarian, 1480 nM. Further, the TGI in the experiment on LOX IMVI melanoma worked out at 1270 nM; in the experiment with NCI/ADR-RES ovarian it was 10.4 µM; in the experiment with MALME-3M melanoma, 3.08 µM; in the experiment with COLO 205 colon, 2.65 µM; with SF-295 CNS, 2.36 µM; with RPMI-8226 leukemia it was 3.23 µM. The TGI in the experiment with HCT-15 colon stood at 1760 nM; in the experiment on RXF 393 renal, 2300 nM; with OVCAR-8 ovarian, 5.16 µM; in the experiment on IGROV1 ovarian, 4.14 µM.
For `COC(=O)[C@@H](C)C[C@H](Cc1ccccc1)NC(=O)c1csc([C@@H](C[C@H](C(C)C)N(C)C(=O)[C@@H](NC(=O)[C@H]2CCCCN2C)C(C)C)OC(C)=O)n1`, the GI50 is 0.695 nM and 2.5 nM in the experiment on LOX IMVI melanoma; 3.83 nM and 2.5 nM in the experiment with NCI/ADR-RES ovarian; 8670 nM in the experiment with MALME-3M melanoma; less than 2.5 nM in the experiment with COLO 205 colon; 0.31 nM and 2.5 nM with HCT-15 colon; 2.5 nM in the experiment on RXF 393 renal. Besides, the GI50 with OVCAR-8 ovarian is 0.519 nM and 2.5 nM; in the experiment with IGROV1 ovarian, 0.308 nM and 2.5 nM. Also, the TGI in the experiment on LOX IMVI melanoma is greater than 25000 nM; in the experiment with NCI/ADR-RES ovarian it was greater than 25 µM; in the experiment with MALME-3M melanoma it was greater than 25 µM; in the experiment on COLO 205 colon, less than 0.0025 µM; in the experiment with SF-295 CNS, 13.1 µM; in the experiment with RPMI-8226 leukemia, 7.54 µM. The TGI is greater than 25000 nM in the experiment on HCT-15 colon, greater than 25000 nM with RXF 393 renal, greater than 25 µM in the experiment with OVCAR-8 ovarian and greater than 25 µM with IGROV1 ovarian.
For `NC(=O)Oc1cc(OC(N)=O)cc(N(CCCl)CCCl)c1`, the GI50 was 2300 nM with LOX IMVI melanoma; 5450 nM in the experiment with NCI/ADR-RES ovarian; 5730 nM with MALME-3M melanoma; 15200 nM with COLO 205 colon; 2890 nM with SF-295 CNS; 3670 nM in the experiment with RPMI-8226 leukemia. The GI50 with HCT-15 colon was 6310 nM; in the experiment with RXF 393 renal, 1980 nM; in the experiment on OVCAR-8 ovarian, 5740 nM; with IGROV1 ovarian, 6710 nM. Further, the TGI in the experiment on LOX IMVI melanoma was greater than 100000 nM; in the experiment with NCI/ADR-RES ovarian, greater than 100 µM; with MALME-3M melanoma it was 23.3 µM; with COLO 205 colon it was 38.6 µM; in the experiment with SF-295 CNS it was greater than 100 µM; with RPMI-8226 leukemia, 53.2 µM. The TGI in the experiment on HCT-15 colon is greater than 100000 nM; with RXF 393 renal it was 5400 nM; in the experiment with OVCAR-8 ovarian it was 67.6 µM; in the experiment with IGROV1 ovarian, 49 µM.
Consider `O=C1/C(=C/C(Cl)=C/c2ccccc2)SC(=S)N1CCc1ccc(O)cc1`, for which the GI50 was 1270 nM in the experiment with LOX IMVI melanoma; 2160 nM in the experiment with NCI/ADR-RES ovarian; 1440 nM with MALME-3M melanoma; 2270 nM in the experiment with COLO 205 colon; 3570 nM with SF-295 CNS; 674 nM in the experiment with RPMI-8226 leukemia. The GI50 in the experiment on HCT-15 colon was 2050 nM; in the experiment on RXF 393 renal, 1580 nM; in the experiment with OVCAR-8 ovarian it was 596 nM; with IGROV1 ovarian, 2020 nM. For the same compound, the TGI in the experiment with LOX IMVI melanoma is 2740 nM; with NCI/ADR-RES ovarian, greater than 100 µM; in the experiment on MALME-3M melanoma, 3 µM; in the experiment on COLO 205 colon it was 7.69 µM; in the experiment with SF-295 CNS, 15.9 µM; with RPMI-8226 leukemia it was 12.7 µM. For the same compound, the TGI came out at 11200 nM in the experiment on HCT-15 colon, 3200 nM in the experiment on RXF 393 renal, 16.3 µM in the experiment with OVCAR-8 ovarian and 4.93 µM with IGROV1 ovarian.
For the compound `Cc1ccc2sc3c(NCCCNCCO)nc4ccccc4c3c(=O)c2c1`, the GI50 in the experiment with LOX IMVI melanoma is 1490 nM; with NCI/ADR-RES ovarian, 1780 nM; with MALME-3M melanoma, 1690 nM; in the experiment with COLO 205 colon, 1550 nM; with SF-295 CNS it was 1770 nM; in the experiment on RPMI-8226 leukemia, 1570 nM. Besides, the GI50 was 1480 nM with HCT-15 colon, 1500 nM with RXF 393 renal, 1740 nM in the experiment on OVCAR-8 ovarian and 1590 nM in the experiment on IGROV1 ovarian. Besides, the TGI was found to be 2940 nM in the experiment on LOX IMVI melanoma; 3.51 µM with NCI/ADR-RES ovarian; 3.18 µM in the experiment with MALME-3M melanoma; 3.19 µM in the experiment on COLO 205 colon; 3.24 µM in the experiment on SF-295 CNS; 3.38 µM with RPMI-8226 leukemia. Also, the TGI in the experiment with HCT-15 colon came to 2920 nM; in the experiment on RXF 393 renal, 2880 nM; in the experiment with OVCAR-8 ovarian, 3.61 µM; in the experiment on IGROV1 ovarian, 3.14 µM.

Source of the values: PubChem BioAssay (NCI).
